Experimental data taken from US7985417B2, “Method of lipid structure preparation” (Yissum Research Development Company of the Hebrew …, priority 2004, dated 2011).

Columns and labels:
[1] = Apparent pKa of C17HC in EPC liposomes before and after insertion of PEG-DSPE; assay type: physicochemical
Procedure: (§1) More generally, and as noted above, the method of microwave irradiation can also be used to insert a lipid-polymer (“lipopolymer”), that is a lipopolymer lacking any ligand, into a pre-formed lipid structure, such as liposomes. This general concept was illustrated in another study, described in Example 4, where liposomes having a lipid bilayer of egg phosphatidylcholine and including a fluorescent label were incubated with a micellar suspension of the lipopolymer DSPE-PEG. Two studies were done, using two different fluorescent labels, shown in FIGS. 4A-4B, incorporated into the liposome lipid bilayers. […] A small amount of one of the fluorescent lipidic labels was included in the lipids during formation of the liposomes.
(§2) Liposomes comprised of egg phosphatidylcholine (EPC) and labeled with a pH-sensitive probe, 7-heptadecyl-4-hydroxycoumarin (C17HC) (FIG. 4A) or 1,2-dioleoyl-sn-glycero-3-phosphoethanolamine (DOPE-HC) (FIG. 4B), were prepared by thin film hydration followed by down sizing using extrusion. Briefly, EPC and one of the pH-sensitive probes were dissolved in an organic solvent in a round-bottomed flask. The solvent was removed by rotary evaporation to form a thin lipid film that was hydrated with an aqueous buffer to form multilamellar liposomes. The liposome suspension was sized by extrusion through polycarbonate membranes to an average diameter of 100 nm.
(§3) A conjugate of DSPE-PEG (PEG MW 2000 Daltons) was obtained commercially. A micellar suspension of the DSPE-PEG conjugate was mixed with a suspension of the labeled-EPC liposomes were incubated for 90 seconds in the presence of microwave irradiation in a conventional microwave oven operated at 60% power (Spectra, 850 W capacity). The extent of conjugate insertion was determined by the shift in the apparent pKa of HC moiety.
With respect to the liposomes labeled with C17HC, the apparent pKa of C17HC was calculated from the change of the ratio of excitation wavelengths 380/330 (emission wavelength 450 nm) as a function of bulk pH (Zuidam and Barenholz, Biochim Biophys Acta, 1329(2):211-22 (1997)). Fluorescence was measured using an LS-50B luminescence spectrometer (Perkin Elmer, Norwalk, Conn.). As a comparative reference, the insertion of DSPE-PEG into the same liposomes at room temperature was also measured.

[2] = Apparent pKa of DOPE-HC in EPC liposomes before and after insertion of PEG-DSPE; assay type: physicochemical
Procedure: as §1
The DOPE-HC-labeled egg PC liposomes were incubated with DSPE-PEG (MW 2000 Daltons) conjugates in the presence of microwave irradiation for 90 seconds. The extent of lipopolymer insertion was calculated from the apparent pKa, as described in Example 4.
Also in this study, a sample of the EPC liposomes was combined with free polyethylene glycol (PEG, MW 2000 Daltons) and exposed for 90 seconds to microwave irradiation in the microwave oven at 60% capacity (850 W total capacity). No insertion of free PEG (i.e., PEG lacking a lipidic or hydrophobic portion) into liposomes was observed.
as §2, §3
With respect to the liposomes labeled with DOPE-HC, the apparent pKa of DOPE-HC was calculated from the change of the ratio of excitation wavelengths 370/408 (emission wavelength 480 nm) as a function of bulk pH. Fluorescence was measured using an LS-50B luminescence spectrometer (Perkin Elmer, Norwalk, Conn.) immediately after exposure of microwave irradiation and 48 hours after exposure.

[3] = EPC with PEG-DSPE (90 sec in MW) after 48 hours
[4] = EPC with PEG-DSPE (90 sec in MW) immediately

| SMILES | apparent pKa [1, 3] | apparent pKa [1, 4] | apparent pKa ([1]; EPC with PEG-DSPE (5 hours at RT)) | apparent pKa ([1]; EPC with PEG-DSPE (5 hours at RT) after 48 hours) | apparent pKa ([1]; EPC without PEG-DSPE) | apparent pKa ([2]; EPC with PEG (90 sec in MW) after 48 hours) | apparent pKa ([2]; EPC with PEG (90 sec in MW) immediately) | apparent pKa [2, 3] | apparent pKa [2, 4] | apparent pKa ([2]; EPC without PEG-DSPE or 2000PEG, after 48 hours) | apparent pKa ([2]; EPC without PEG-DSPE or PEG) |
| --- | --- | --- | --- | --- | --- | --- | --- | --- | --- | --- | --- |
| CCCCCCCCCCCCCCCCCc1ccc2c(O)cc(=O)oc2c1 [C17HC, 7-heptadecyl-4-hydroxycoumarin] | 10.28 | 9.98 | 10.13 | 10.14 | 9.41 | – | – | – | – | – | – |
| CCCCCCCC/C=C\CCCCCCCC(=O)OC[C@H](COP(=O)(O)OCCN)OC(=O)CCCCCCC/C=C\CCCCCCCC [DOPE-HC, 1,2-dioleoyl-sn-glycero-3-phosphoethanolamine] | – | – | – | – | – | 9.08 | 9.09 | 9.38 | 9.26 | 9.28 | 9.12 |
